Test [1] has as its system Pseudomonas aeruginosa strain H1001 fliC::luxCDABE. The experiment in a line: Luminescence-based assay for the non-cleaved (bound) peptides on cellulose membranes. Format: cell-based. As to conditions: for Luminescence at the given time in minutes: 0 / Luminescence at the given time in minutes: 20 / Luminescence at the given time in minutes: 40 / Luminescence at the given time in minutes: 60 / Luminescence at the given time in minutes: 80 / Luminescence at the given time in minutes: 100 / Luminescence at the given time in minutes: 120 / Luminescence at the given time in minutes: 180 / Luminescence at the given time in minutes: 240: cellulose-bound peptide; for Luminescence at the given time in minutes: 0: 0 min; for Luminescence at the given time in minutes: 20: 20 min; for Luminescence at the given time in minutes: 40: 40 min; for Luminescence at the given time in minutes: 60: 60 min; for Luminescence at the given time in minutes: 80: 80 min; for Luminescence at the given time in minutes: 100: 100 min; for Luminescence at the given time in minutes: 120: 120 min; for Luminescence at the given time in minutes: 180: 180 min; for Luminescence at the given time in minutes: 240: 240 min; for Activity Class bound: uncleaved cellulose-bound peptides. The method in brief: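 Peptides remained bound to cellulose spots, which were ethanol-washed and equilibrated in 100 mM Tris pH 7.3. Constitutively lux-expressing P. aeruginosa (OD600 0.35 culture diluted 1:25) added in 10 mM Tris-HCl pH 7.3, 20 mM glucose at 37° C. Luminescence (RLU) followed over 14 time points; peptides binned into six activity classes.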

For test [2], the system named is Pseudomonas aeruginosa strain H1001. As to the kind of experiment: Assay for the cleaved (free, soluble) peptides from cellulose support, luminescence killing assay. Format: cell-based. Also on record: key: 1: Peptides showing stronger killing than Bac2A at a 4 to 8-fold higher dilution; Peptides showing stronger killing compared to that of Bac2A at a 4-fold higher dilution; 3: Peptides similar to Bac2A; 4: Peptides similar to Bac2A at the highest concentration but demonstrating weaker killing at a 2-fold dilution; 5: Peptides giving very weak or no killing at a 2-fold dilution; 6: Peptides with weak killing activity at the highest concentration. Particulars: free (cleaved) peptides, killing relative to Bac2A. The method in brief: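 Cellulose-synthesized peptides (amidated C-terminus, two β-alanines) cleaved by ammonia, released from punched spots 30 min at 37 °C, then serially diluted. P. aeruginosa H1001 (constitutive fliC::luxCDABE) overnight culture diluted 1:500 in LB or 100 mM Tris pH 7.3/20 mM glucose. Killing followed as time-dependent luminescence loss at 37 °C.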

Data on twelve sequences can be found in patent US20080207522A1, “Antimicrobial Peptides” (priority 2004, published 2008).

Take RRLVAIVAVRRI [Bac007]: in test [1], the “Luminescence at the given time in minutes: 0” value (“Luminescence … in minutes: 0” for short) is 3943 RLU, the “Luminescence at the given time in minutes: 20” value (“Luminescence … in minutes: 20” below) is 7157 RLU, the “Luminescence at the given time in minutes: 40” value (“Luminescence … in minutes: 40” below) is 4403 RLU and the “Luminescence at the given time in minutes: 60” value (“Luminescence … 60” below) was 2010 RLU. In addition, in test [1], the “Luminescence at the given time in minutes: 80” value (“Luminescence … in minutes: 80” below) was determined as 679 RLU, the “Luminescence at the given time in minutes: 100” value (“Luminescence … 100” below) is 205 RLU, the “Luminescence at the given time in minutes: 120” value (“Luminescence … 120” for short) came out at 90 RLU and the “Luminescence at the given time in minutes: 180” value (from here on “Luminescence … 180”) was 89 RLU. Moreover, in test [1], the “Luminescence at the given time in minutes: 240” value (from here on “Luminescence … 240”) worked out at 79 RLU and the “Activity Class bound” value is listed as 3 (Peptides similar to Bac2A resulting in lux values of less than 500 after 240 min.). In addition, the “Activity Class Soluble” value in test [2] worked out at 4.
As to RRRVIVAVLARI [Bac046], in test [1], the “Luminescence … in minutes: 0” value turned out to be 4408 RLU, the “Luminescence … in minutes: 20” value is listed as 5904 RLU, the “Luminescence … in minutes: 40” value was determined as 2345 RLU and the “Luminescence … 60” value came out at 233 RLU. Also, in test [1], the “Luminescence … in minutes: 80” value came out at 76 RLU, the “Luminescence … 100” value is recorded as 70 RLU, the “Luminescence … 120” value is 102 RLU and the “Luminescence … 180” value is given as 48 RLU. Also, in test [1], the “Luminescence … 240” value was determined as 53 RLU and the “Activity Class bound” value is on record as 3 (Peptides similar to Bac2A resulting in lux values of less than 500 after 240 min.). For the same sequence, the “Activity Class Soluble” value in test [2] came out at 3.
For RRVAIVVIARLR [Bac018], in test [1], the “Luminescence … in minutes: 0” value is given as 4966 RLU, the “Luminescence … in minutes: 20” value was 6080 RLU, the “Luminescence … in minutes: 40” value came out at 981 RLU and the “Luminescence … 60” value was 82 RLU. Further, in test [1], the “Luminescence … in minutes: 80” value is 44 RLU, the “Luminescence … 100” value was found to be 60 RLU, the “Luminescence … 120” value stood at 62 RLU and the “Luminescence … 180” value is given as 50 RLU. Besides, in test [1], the “Luminescence … 240” value was 39 RLU; the “Activity Class bound” value is 2 (Peptides reducing lux values to between 500 and 1000 after 40 min.). Further, the “Activity Class Soluble” value in test [2] is recorded as 2.
With RRVIAIAVRRLV [Bac050], in test [1], the “Luminescence … in minutes: 0” value was 4803 RLU, the “Luminescence … in minutes: 20” value is 6715 RLU, the “Luminescence … in minutes: 40” value stood at 5157 RLU and the “Luminescence … 60” value was 4430 RLU. In addition, in test [1], the “Luminescence … in minutes: 80” value came to 3915 RLU, the “Luminescence … 100” value was determined as 3428 RLU, the “Luminescence … 120” value came to 3246 RLU and the “Luminescence … 180” value is 3206 RLU. Further, in test [1], the “Luminescence … 240” value is reported as 3590 RLU and the “Activity Class bound” value is listed as 6 (Peptides having residual luminescence (lux) values greater than 3000 after 240 min.). Further, in test [2], the “Activity Class Soluble” value turned out to be 3.
On to RVLIAARVIRRV [Bac047], for which, in test [1], the “Luminescence … in minutes: 0” value worked out at 4733 RLU, the “Luminescence … in minutes: 20” value was 6747 RLU, the “Luminescence … in minutes: 40” value is listed as 5100 RLU and the “Luminescence … 60” value turned out to be 4770 RLU. Besides, in test [1], the “Luminescence … in minutes: 80” value is recorded as 4031 RLU, the “Luminescence … 100” value is reported as 3383 RLU, the “Luminescence … 120” value worked out at 3012 RLU and the “Luminescence … 180” value is reported as 2829 RLU. Moreover, in test [1], the “Luminescence … 240” value was found to be 2615 RLU and the “Activity Class bound” value is 5 (Peptides reducing luminescence (lux) values to between 1500 to 3000 after 240 min.). Further, the “Activity Class Soluble” value in test [2] was determined as 3.
With RVLRVVRAAIRI [Bac035], in test [1], the “Luminescence … in minutes: 0” value turned out to be 5199 RLU, the “Luminescence … in minutes: 20” value is on record as 6461 RLU, the “Luminescence … in minutes: 40” value amounted to 4989 RLU and the “Luminescence … 60” value worked out at 4389 RLU. Further, in test [1], the “Luminescence … in minutes: 80” value came to 4001 RLU, the “Luminescence … 100” value was determined as 3439 RLU, the “Luminescence … 120” value amounted to 3162 RLU and the “Luminescence … 180” value was found to be 2456 RLU. In test [1], the “Luminescence … 240” value stood at 2577 RLU and the “Activity Class bound” value is 5 (Peptides reducing luminescence (lux) values to between 1500 to 3000 after 240 min.). In addition, the “Activity Class Soluble” value in test [2] is listed as 5.
Consider VARIVVRLIRAR [Bac013], for which, in test [1], the “Luminescence … in minutes: 0” value is recorded as 3890 RLU, the “Luminescence … in minutes: 20” value stood at 6850 RLU, the “Luminescence … in minutes: 40” value was found to be 3930 RLU and the “Luminescence … 60” value is given as 1584 RLU. Moreover, in test [1], the “Luminescence … in minutes: 80” value is given as 494 RLU, the “Luminescence … 100” value turned out to be 193 RLU, the “Luminescence … 120” value was found to be 111 RLU and the “Luminescence … 180” value is 100 RLU. Besides, in test [1], the “Luminescence … 240” value came out at 66 RLU and the “Activity Class bound” value was 3 (Peptides similar to Bac2A resulting in lux values of less than 500 after 240 min.). In addition, the “Activity Class Soluble” value in test [2] came to 3.
In the case of VIALRIAVRRVR [Bac045], in test [1], the “Luminescence … in minutes: 0” value is reported as 4873 RLU, the “Luminescence … in minutes: 20” value turned out to be 6105 RLU, the “Luminescence … in minutes: 40” value was found to be 2726 RLU and the “Luminescence … 60” value is 554 RLU. Further, in test [1], the “Luminescence … in minutes: 80” value was 83 RLU, the “Luminescence … 100” value turned out to be 61 RLU, the “Luminescence … 120” value is on record as 37 RLU and the “Luminescence … 180” value is reported as 57 RLU. For the same sequence, in test [1], the “Luminescence … 240” value worked out at 35 RLU and the “Activity Class bound” value is 3 (Peptides similar to Bac2A resulting in lux values of less than 500 after 240 min.). The “Activity Class Soluble” value in test [2] was found to be 3.
For the sequence VIALVRARVRRI [Bac049], in test [1], the “Luminescence … in minutes: 0” value is recorded as 4926 RLU, the “Luminescence … in minutes: 20” value was determined as 7239 RLU, the “Luminescence … in minutes: 40” value is given as 5219 RLU and the “Luminescence … 60” value is on record as 4106 RLU. Besides, in test [1], the “Luminescence … in minutes: 80” value is 3188 RLU, the “Luminescence … 100” value is recorded as 2524 RLU, the “Luminescence … 120” value came to 2059 RLU and the “Luminescence … 180” value amounted to 1687 RLU. Also, in test [1], the “Luminescence … 240” value turned out to be 1794 RLU and the “Activity Class bound” value is recorded as 5 (Peptides reducing luminescence (lux) values to between 1500 to 3000 after 240 min.). In addition, in test [2], the “Activity Class Soluble” value is 3.
For VILARRRVRIAV [Bac017], in test [1], the “Luminescence … in minutes: 0” value amounted to 4219 RLU, the “Luminescence … in minutes: 20” value was determined as 7259 RLU, the “Luminescence … in minutes: 40” value was found to be 5041 RLU and the “Luminescence … 60” value is recorded as 3136 RLU. In test [1], the “Luminescence … in minutes: 80” value stood at 1907 RLU, the “Luminescence … 100” value was 1047 RLU, the “Luminescence … 120” value came out at 578 RLU and the “Luminescence … 180” value turned out to be 321 RLU. In addition, in test [1], the “Luminescence … 240” value is 214 RLU and the “Activity Class bound” value is recorded as 3 (Peptides similar to Bac2A resulting in lux values of less than 500 after 240 min.). In test [2], the “Activity Class Soluble” value is listed as 5.
Turning to VIVRLAARRVRI [Bac028], in test [1], the “Luminescence … in minutes: 0” value worked out at 5001 RLU, the “Luminescence … in minutes: 20” value is 6828 RLU, the “Luminescence … in minutes: 40” value was determined as 5315 RLU and the “Luminescence … 60” value worked out at 5037 RLU. Besides, in test [1], the “Luminescence … in minutes: 80” value was found to be 4555 RLU, the “Luminescence … 100” value came out at 4143 RLU, the “Luminescence … 120” value is reported as 3762 RLU and the “Luminescence … 180” value is listed as 3646 RLU. In test [1], the “Luminescence … 240” value is 4268 RLU and the “Activity Class bound” value is recorded as 6 (Peptides having residual luminescence (lux) values greater than 3000 after 240 min.). Also, the “Activity Class Soluble” value in test [2] is given as 5.
VLARVVARRIRI [Bac040]: in test [1], the “Luminescence … in minutes: 0” value is listed as 4220 RLU, the “Luminescence … in minutes: 20” value is on record as 6241 RLU, the “Luminescence … in minutes: 40” value came to 4269 RLU and the “Luminescence … 60” value came to 3951 RLU. Besides, in test [1], the “Luminescence … in minutes: 80” value turned out to be 3368 RLU, the “Luminescence … 100” value is 2880 RLU, the “Luminescence … 120” value is 2761 RLU and the “Luminescence … 180” value is given as 2300 RLU. In test [1], the “Luminescence … 240” value is reported as 2415 RLU and the “Activity Class bound” value is listed as 5 (Peptides reducing luminescence (lux) values to between 1500 to 3000 after 240 min.). Also, the “Activity Class Soluble” value in test [2] was 5.
